Measured values taken from patent publication US8415115B2, “Reaction medium for methicillin-resistant Staphylococcus aureus (MRSA) bacteria” (Biomerieux, priority 2008, dated 2013).

Key:
MSSAs = assay: Sub-inhibitory concentration: below the antibiotic concentration required for inhibition of MSSAs in a culture medium; assay type: cell-based, Staphylococcus aureus; settings: culture medium such as chromID S. aureus medium
Procedure: The sub-inhibitory concentration is intended to mean a concentration below the concentration of antibiotic required for inhibition of MSSAs, in a culture medium suitable for searching for S. aureus using a biological sample, such as the chromID™ S. aureus medium (bioMerieux). This concentration is below approximately 3 mg/l in the case of Cefoxitin, approximately 2 mg/l in the case of Cefotaxime, approximately 1 mg/l in the case of Ertapenem, approximately 2 mg/l in the case of Cefoperazone, approximately 2 mg/l in the case of Cefpodoxime, and approximately 1 mg/l in the case of Cefdinir.

[1] = system: Methicillin-resistant Staphylococcus aureus (MRSA); assay: Detection of MRSA strains (colored colonies) on chromID MRSA based media with alpha-glucosidase substrates and antibiotics; assay type: cell-based; settings: Example B, alpha-glucosidase substrates
Procedure: The media tested in the experiments hereinafter were media comprising the chromID MRSA medium (bioMérieux ref. 43 451) as basic medium, and comprising the following elements: • Medium T: chromID MRSA control medium (ref. 43 451), comprising in particular an X-N-methyl-alpha-glucoside substrate, at a concentration of 0.1 g/l, and Cefoxitin at 4 mg/1. • Medium S: medium T, also comprising an X-alpha-glucoside substrate, at a concentration of 25, 37, 45 or 50 mg/l. • Medium A: medium S (X-alpha-glucoside concentration: 45 mg/l), the Cefoxitin being substituted with Ceftriaxone, at a concentration of 1, 2, 4, 8, 16, 32 mg/l. • Medium B: medium S (X-alpha-glucoside concentration: 45 mg/l), the Cefoxitin being substituted with Cefotaxime at a concentration of 1, 2, 4, 8, 16, 32 mg/l. • Medium C: medium S (X-alpha-glucoside concentration: 45 mg/l), the Cefoxitin being substituted with Ertapenem at a concentration of 0.1, 0.25, 0.5, 0.75, 1 mg/l. • Medium D: medium S (X-alpha-glucoside concentration: 45 mg/l), the Cefoxitin being substituted with Cefoperazone at a concentration of 0.5, 1, 1.5, 2 mg/l. • Medium E: medium S (X-alpha-glucoside concentration: 45 mg/l), the Cefoxitin being substituted with Cefpodoxime at a concentration of 0.5, 1, 1.5, 2 mg/l. • Medium F: medium S (X-alpha-glucoside concentration: 45 mg/l), the Cefoxitin being substituted with a Cefoxitin/Cefotaxime concentration at the concentrations below:
• Medium G: medium S (X-alpha-glucoside concentration: 45 mg/l), the Cefoxitin being substituted with a Cefoxitin/Ceftriaxone combination at the concentrations below:
• Medium H: medium S (X-alpha-glucoside concentration: 45 mg/l), the Cefoxitin being substituted with a Cefoxitin/Ertapenem combination at the concentrations below:
• Medium I: medium S (X-alpha-glucoside concentration: 45 mg/l), the Cefoxitin being substituted with a Cefoxitin/Cefpodoxime combination at the concentrations below:
• Medium J: medium S (X-alpha-glucoside concentration: 45 mg/1), the Cefoxitin being substituted with a Cefoxitin/Cefoperazone combination at the concentrations below:
• Medium K: medium S (X-alpha-glucoside concentration: 45 mg/l), the Cefoxitin being substituted with a Cefoxitin/Cefotaxime combination, at the concentrations below, also comprising a mixture of inhibitors that favour the growth of Staphylococcus aureus.
• Medium L: medium S (X-alpha-glucoside concentration: 45 mg/l), the Cefoxitin being substituted with Cefdinir at a concentration of 0.25, 0.5, 1, 2, 4, 8 mg/l. • Medium M: medium S (X-alpha-glucoside concentration: 45 mg/l), the Cefoxitin being substituted with a Cefoxitin/Cefdinir combination at the concentrations below: […]
The strains detected correspond to the strains forming colored colonies on the medium.

Row | Compound | Sub-inhibitory concentration (MSSAs) [mg/L] | Sensitivity and specificity, MRSAs distinguished from MSSAs (in words) [1]
1 | CO[C@@]1(NC(=O)Cc2cccs2)C(=O)N2C(C(=O)O)=C(COC(N)=O)CS[C@@H]21 [Cefoxitin] | < 3 | 
2 | CO/N=C(\C(=O)N[C@@H]1C(=O)N2C(C(=O)O)=C(COC(C)=O)CS[C@H]12)c1csc(N)n1 [Cefotaxime] |  | did not make it possible to obtain, on their own, a sensitivity and a specificity enabling MRSAs to be distinguished from MSSAs
3 | CO/N=C(\C(=O)N[C@@H]1C(=O)N2C(C(=O)O)=C(CSc3nc(=O)c(=O)[nH]n3C)CS[C@H]12)c1csc(N)n1 [Ceftriaxone] |  | did not make it possible to obtain, on their own, a sensitivity and a specificity enabling MRSAs to be distinguished from MSSAs
4 | CCN1CCN(C(=O)N[C@@H](C(=O)N[C@@H]2C(=O)N3C(C(=O)O)=C(CSc4nnnn4C)CS[C@H]23)c2ccc(O)cc2)C(=O)C1=O [Cefoperazone] |  | did not make it possible to obtain, on their own, a sensitivity and a specificity enabling MRSAs to be distinguished from MSSAs
5 | C[C@@H](O)[C@H]1C(=O)N2C(C(=O)O)=C(S[C@@H]3CN[C@H](C(=O)Nc4cccc(C(=O)O)c4)C3)[C@H](C)[C@H]12 [Ertapenem] |  | did not make it possible to obtain, on their own, a sensitivity and a specificity enabling MRSAs to be distinguished from MSSAs
